According to patent US7772241B2, “Variolin derivatives and their use as antitumor agents” (Pharma Mar S.A., priority 2001, dated 2010):
Where two headings read alike, the source gives them in different places.

Columns and labels:
A-549 = assay: Inhibition of cells growth by colorimetric (SRB) assay, A-549
Outline: (§1)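 Human tumour cells in RPMI 1640 with 10% FBS were seeded at 5×10^3 cells/well, allowed to attach for 18 h, then exposed to samples at 10 to 10^−8 μg/ml for 48 h. Growth was measured by SRB staining after TCA fixation, with absorbance read at 490 nm in triplicate wells.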

HT-29 = assay: Inhibition of cells growth by colorimetric (SRB) assay, HT-29
Outline: as §1

[1] = Inhibition of cells growth by colorimetric (SRB) assay, HMEC1; settings: human, HMEC1 cells, 48 hours exposure
HMEC1 = assay: as above; settings: for H-MEC-1 TGI / TGI H-MEC-1: in M (unit assumed); for CC50: read-out: LC50 H-MEC-1
K-562 = assay: Inhibition of cells growth by colorimetric (SRB) assay, K-562; settings: SRB assay, 48 hours exposure; for GI50: read-out: GI50 K-562; for CC50: read-out: LC50 K-562
Outline: as §1

SK-MEL-28 = assay: Inhibition of cells growth by colorimetric (SRB) assay, SK-MEL-28; settings: SRB assay, 48 hours exposure; for GI50: read-out: GI50 MEL-28; for CC50: read-out: LC50 MEL-28
Outline: as §1

LoVo = assay: Inhibition of cells growth by colorimetric (SRB) assay, LoVo; settings: SRB assay, 48 hours exposure; for GI50: read-out: GI50 LOVO; for CC50: read-out: LC50 LOVO
Outline: as §1

LoVo-Dox = assay: Inhibition of cells growth by colorimetric (SRB) assay, LoVo-Dox; settings: SRB assay, 48 hours exposure; for GI50: read-out: GI50 LOVO-DOX; for CC50: read-out: LC50 LOVO-DOX
Outline: as §1

DU-145 = assay: Inhibition of cells growth by colorimetric (SRB) assay, DU-145; settings: SRB assay, 48 hours exposure; for GI50: read-out: GI50 DU-145; for CC50: read-out: LC50 DU-145
Outline: as §1

LNCaP = assay: Inhibition of cells growth by colorimetric (SRB) assay, LNCaP; settings: for CC50: read-out: LC50 LN-caP, SRB assay, 48 hours exposure
Outline: as §1

SK-BR-3 = assay: Inhibition of cells growth by colorimetric (SRB) assay, SK-BR-3; settings: SRB assay, 48 hours exposure; for GI50: read-out: GI50 SK-BR-3; for CC50: read-out: LC50 SK-BR-3
Outline: as §1

IGROV-1 = assay: Inhibition of cells growth by colorimetric (SRB) assay, IGROV-1; settings: SRB assay, 48 hours exposure; for GI50: read-out: GI50 IGROV; for CC50: read-out: LC50 IGROV
Outline: as §1

IGROV-ET = assay: Inhibition of cells growth by colorimetric (SRB) assay, IGROV-ET; settings: SRB assay, 48 hours exposure; for GI50: read-out: GI50 IGROV-ET; for CC50: read-out: LC50 IGROV-ET
Outline: as §1

SK-OV-3 = assay: Inhibition of cells growth by colorimetric (SRB) assay, SK-OV-3; settings: for GI50: Homo sapiens, SK-OV-3, 48 h, read-out: GI50 SKOV-3, SRB assay, 48 hours exposure; for TGI SKOV-3 / CC50: SRB assay, 48 hours exposure; for CC50: read-out: LC50 SKOV-3
Outline: as §1

PANC-1 = assay: Inhibition of cells growth by colorimetric (SRB) assay, PANC-1; settings: SRB assay, 48 hours exposure; for GI50: read-out: GI50 PANC-1
Outline: as §1

[2] = Homo sapiens, A549, 48 h, read-out: A-549 GI50, SRB assay, 48 hours exposure
[3] = Homo sapiens, A549, 48 h, read-out: A-549 LC50, SRB assay, 48 hours exposure
[4] = Homo sapiens, HT-29, 48 h, read-out: HT-29 GI50, SRB assay, 48 hours exposure
[5] = Homo sapiens, HT-29, 48 h, read-out: HT-29 LC50, SRB assay, 48 hours exposure
[6] = Homo sapiens, HMEC-1, 48 h, read-out: H-MEC-1 GI50, SRB assay, 48 hours exposure
[7] = read-out: GI50 A-549, SRB assay, 48 hours exposure
[8] = read-out: LC50 A-549, SRB assay, 48 hours exposure
[9] = read-out: GI50 HT-29, SRB assay, 48 hours exposure
[10] = read-out: LC50 HT-29, SRB assay, 48 hours exposure
[11] = read-out: GI50 H-MEC-1, SRB assay, 48 hours exposure

CSc1nccc2c(-c3cccc([N+](=O)[O-])c3)c3cccnc3n12 [Compound 59]
GI50 (A-549; [2]): 29700 nM
CC50 (A-549; [3]): 29700 nM
A-549 TGI (A-549; SRB assay, 48 hours exposure): 2.97E−05
GI50 (HT-29; [4]): 29700 nM
CC50 (HT-29; [5]): 29700 nM
HT-29 TGI (HT-29; SRB assay, 48 hours exposure): 2.97E−05
CC50 at 48 h ([1]; H-MEC-1 LC50, SRB assay): 29700 nM
GI50 (HMEC1; [6]): 29700 nM
H-MEC-1 TGI (HMEC1; SRB assay, 48 hours exposure): 2.97E−05

Nc1nccc2c(-c3ccccc3)c3cccnc3n12 [Compound 63]
GI50 (A-549; [2]): ≥ 38400 nM
CC50 (A-549; [3]): ≥ 38400 nM
A-549 TGI (A-549; SRB assay, 48 hours exposure): 3.84E−05
GI50 (HT-29; [4]): ≥ 38400 nM
CC50 (HT-29; [5]): ≥ 38400 nM
HT-29 TGI (HT-29; SRB assay, 48 hours exposure): 3.84E−05
CC50 at 48 h ([1]; H-MEC-1 LC50, SRB assay): ≥ 38400 nM
GI50 (HMEC1; [6]): ≥ 38400 nM
H-MEC-1 TGI (HMEC1; SRB assay, 48 hours exposure): 3.84E−05

COc1cccc(-c2c3cccnc3n3c(N)nccc23)c1.Cl [Compound 67]
CC50 (A-549; [3]): 30600 nM
GI50 (A-549; Homo sapiens, A549, 48 h, read-out: GI50 A-549, SRB assay, 48 hours exposure): 30600 nM
A-549 TGI (A-549; SRB assay, 48 hours exposure): 3.06E−05
GI50 (HT-29; [4]): 30600 nM
CC50 (HT-29; [5]): 30600 nM
HT-29 TGI (HT-29; SRB assay, 48 hours exposure): 3.06E−05
CC50 at 48 h ([1]; LC50 H-MEC-1, SRB assay): 30600 nM
GI50 (HMEC1; Homo sapiens, HMEC-1, 48 h, read-out: GI50 H-MEC-1, SRB assay, 48 hours exposure): 30600 nM
TGI H-MEC-1 (HMEC1; SRB assay, 48 hours exposure): 3.06E−05

COc1nccc(-c2c3cccnc3n3c(N)nccc23)n1 [Compound 76]
TGI K-562 (K-562): 2.28E−06
GI50 (K-562): 1020 nM
CC50 (K-562): 5920 nM
TGI A-549 (A-549; SRB assay, 48 hours exposure): 1.49E−06
GI50 (A-549; [7]): 407 nM
CC50 (A-549; [8]): 7700 nM
TGI MEL-28 (SK-MEL-28): 8.01E−07
GI50 (SK-MEL-28): 359 nM
CC50 (SK-MEL-28): 1790 nM
TGI HT-29 (HT-29; SRB assay, 48 hours exposure): 3.42E−06
GI50 (HT-29; [9]): 770 nM
CC50 (HT-29; [10]): ≥ 34200 nM
TGI LOVO (LoVo): 6.81E−07
GI50 (LoVo): 163 nM
CC50 (LoVo): ≥ 34200 nM
TGI LOVO-DOX (LoVo-Dox): 3.42E−07
GI50 (LoVo-Dox): 773 nM
CC50 (LoVo-Dox): ≥ 34200 nM
TGI DU-145 (DU-145): 1.42E−06
GI50 (DU-145): 542 nM
CC50 (DU-145): 3420 nM
CC50 (LNCaP; Homo sapiens, LNCaP, 48 h): 3080 nM
TGI LN-caP (LNCaP; SRB assay, 48 hours exposure): 4.55E−07
GI50 (LNCaP; read-out: GI50 LN-caP, SRB assay, 48 hours exposure): 72.9 nM
TGI SK-BR-3 (SK-BR-3): 1.21E−06
GI50 (SK-BR-3): 541 nM
CC50 (SK-BR-3): 2710 nM
TGI IGROV (IGROV-1): 1.77E−06
GI50 (IGROV-1): 725 nM
CC50 (IGROV-1): 3420 nM
TGI IGROV-ET (IGROV-ET): 2.04E−06
GI50 (IGROV-ET): 649 nM
CC50 (IGROV-ET): ≥ 34200 nM
GI50 (SK-OV-3): 1220 nM
TGI SKOV-3 (SK-OV-3): 3.42E−06
CC50 (SK-OV-3): 34300 nM
TGI PANC-1 (PANC-1): 2.15E−06
GI50 (PANC-1): 650 nM
TGI H-MEC-1 (HMEC1; SRB assay, 48 hours exposure): 2.27E−07
GI50 (HMEC1; [11]): 77.7 nM
CC50 (HMEC1; SRB assay, 48 hours exposure): 1560 nM

CCOc1nccc(-c2c3cccnc3n3c(N)nccc23)n1 [Compound 77]
TGI K-562 (K-562): 3.26E−05
GI50 (K-562): 1210 nM
CC50 (K-562): ≥ 32600 nM
TGI A-549 (A-549; SRB assay, 48 hours exposure): 3.26E−05
GI50 (A-549; [7]): ≥ 32600 nM
CC50 (A-549; [8]): > 32600 nM
TGI MEL-28 (SK-MEL-28): 9.24E−07
GI50 (SK-MEL-28): 398 nM
CC50 (SK-MEL-28): 2160 nM
TGI HT-29 (HT-29; SRB assay, 48 hours exposure): 3.26E−06
GI50 (HT-29; [9]): 829 nM
CC50 (HT-29; [10]): 3260 nM
TGI LOVO (LoVo): 2.02E−06
GI50 (LoVo): 629 nM
CC50 (LoVo): ≥ 32600 nM
TGI LOVO-DOX (LoVo-Dox): 2.79E−06
GI50 (LoVo-Dox): 702 nM
CC50 (LoVo-Dox): 15100 nM
TGI DU-145 (DU-145): 1.68E−06
GI50 (DU-145): 630 nM
CC50 (DU-145): 27800 nM
GI50 (LNCaP; Homo sapiens, LNCaP, 48 h, read-out: GI50 LN-caP, SRB assay, 48 hours exposure): 617 nM
CC50 (LNCaP; Homo sapiens, LNCaP, 48 h): 2960 nM
TGI LN-caP (LNCaP; SRB assay, 48 hours exposure): 1.35E−06
TGI SK-BR-3 (SK-BR-3): 1.34E−06
GI50 (SK-BR-3): 643 nM
CC50 (SK-BR-3): 2790 nM
TGI IGROV (IGROV-1): 2.74E−06
GI50 (IGROV-1): 1300 nM
CC50 (IGROV-1): ≥ 32600 nM
TGI IGROV-ET (IGROV-ET): 1.61E−06
GI50 (IGROV-ET): 555 nM
CC50 (IGROV-ET): ≥ 32600 nM
GI50 (SK-OV-3): 1300 nM
TGI SKOV-3 (SK-OV-3): 3.26E−06
CC50 (SK-OV-3): 3260 nM
TGI PANC-1 (PANC-1): 7.80E−06
GI50 (PANC-1): 1160 nM
CC50 (PANC-1; read-out: LC50 PANC-1): ≥ 32600 nM
TGI H-MEC-1 (HMEC1; SRB assay, 48 hours exposure): 3.21E−07
GI50 (HMEC1; [11]): 206 nM
CC50 (HMEC1; SRB assay, 48 hours exposure): 1260 nM
